The subject of one test is staphylococcus aureus. The test is described as follows: lowest bacteriostasis concentration, tube double dilution method. The following applies: 24 hours, 37° C. Type of test: cell-based. As for the experimental part: (§1) The lowest bacteriostasis concentration of the six kinds of the alkoxylpropylisothiazolinone of the present invention is measured through the tube double dilution method. In a Φ18×180 mm tube, 5 ml aseptic culture medium was added, then 50 μl bacteria suspended liquid of coliform was injected to prepare culture solution of beef extract peptone having bacteria concentration of 10^7 cfu/ml, then 50 μl tetrahydrofuran solution containing 4,5-dichloro-2-isopropoxypropyl-4-isothiazolin-3-one with the concentration of 2 μg/ml, 4 μg/ml, 8 μg/ml, 16 μg/ml, 32 μg/ml were added respectively. After cultured for 24 hours under a constant temperature of 37° C., the lowest bacteriostasis concentration of 4,5-dichloro-2-isopropoxypropyl-4-isothiazolin-3-one against coliform bacteria was measured. The result is 8 μg/ml (the cfu is a colong forming unit, 1 cfu refer to one single colong formed on the agar plate after being cultured).
(§2) When the coliform bacteria of the present invention is replaced with saccharomyces cerevisiae or staphylococcus aureus, and the 4,5-dichloro-2-isopropoxypropyl-4-isothiazolin-3-one is replaced with 4,5-dichloro-2-methoxy-propyl-4-isothiazolin-3-one, 4,5-dichloro-2-ethoxypropyl-4-isothiazolin-3-one, 4,5-dichloro-2-butoxypropyl-4-isothiazolin-3-one, 4,5-dichloro-2-methoxyethoxypropyl-4-isothiazolin-3-one, or 4,5-dichloro-2-chlorophenoxyethoxypropyl-4-isothiazolin-3-one, a considerable experimental results are also received, which are shown in the following table.

In another test the test system is saccharomyces cerevisiae. The description is as above. Type of test: cell-based. The following applies: 24 hours, 37° C. The procedure: as §1, §2
In a further test the test system is coliform bacteria. Described as above. The following applies: 10^7 cfu/ml, 24 hours, 37° C. It counts as cell-based. The procedure:
as §1

The subject of another test is leaf spot of beet. The test can be described thus: drug action and field test against leaf spot of beet. It counts as in vivo. An excerpt: Otherwise, it has also a good prevent function to the apple ring rot, tomato gray mold and cotton soreshin. For example, when the 4,5-dichloro-2-isopropoxypropyl-4-isothiazolin-3-one is used as bactericide, it is merely required 39 g pure medicament per mu ( 1/15 of a hectare) with the concentration of 250 ppm to control the leaf spot of bee, and the efficiency of the prevention and cure is up to 75.0%.

A further test has as its system heterotrophic bacteria. The test is described as follows: sterilization test in industrial cooling (circulating) water system. To be noted: for the amount of the heterotrophic bacteria, virtual result / the rate of sterilization: 50 mg/L medicament; for control and sterilization of microorganism in industry cooling water (in words): industrial cooling water. An excerpt:
The compound of the present invention may be used to control and sterilize alga, fungi and bacteria in the industrial cooling water system. First, chlorine was stopped adding into the circulating water system for 3 days before administration. The total amount of the heterotrophic bacteria in the circulating water was raised, and then the 4,5-dichloro-2-methoxyethoxypropyl-4-isothiazolin-3-one was thrown in, while the discharge of the water was stopped. The amount of the heterotrophic bacteria in water and the sterilization rate was measured at 4 hours, 12 hours, 24 hours, 36 hours after the medicament was added.

Regarding `COCCOCCCn1sc(Cl)c(Cl)c1=O` [4,5-dichloro-2-methoxyethoxypropyl-4-isothiazolin-3-one], the lowest bacteriostasis concentration in the test on staphylococcus aureus, in the test with saccharomyces cerevisiae and with coliform bacteria was 16 µg/mL throughout. In addition, the “effect of the prevention and cure (in words)” value (“effect” for short) in the test on leaf spot of beet was “considerable effect of the prevention and cure”. Moreover, the “the amount of the heterotrophic bacteria, virtual result” value in the test on heterotrophic bacteria (4 h after addition) is recorded as 2.0 × 10^5 number/mL; in the test on heterotrophic bacteria (12 h after addition) it was 4.0 × 10^4 number/mL; with heterotrophic bacteria (24 h after addition), 3.0 × 10^4 number/mL; with heterotrophic bacteria (36 h after addition), 3.3 × 10^4 number/mL. Besides, the “the rate of sterilization” value is 99.33% in the test with heterotrophic bacteria (4 h after addition), 99.87% in the test with heterotrophic bacteria (12 h after addition), 99.90% in the test with heterotrophic bacteria (24 h after addition) and 99.89% with heterotrophic bacteria (36 h after addition).

Regarding `COCCCn1sc(Cl)c(Cl)c1=O`, the lowest bacteriostasis concentration in the test on staphylococcus aureus was determined as 32 µg/mL; with saccharomyces cerevisiae, 16 µg/mL; in the test with coliform bacteria, 4 µg/mL. In addition, the “control and sterilization of microorganism in industry cooling water (in words)” value (“control and sterilization” below) in the test with heterotrophic bacteria is “controlled and sterilized effectively”.

As for `CCCCOCCCn1sc(Cl)c(Cl)c1=O`, the values for the lowest bacteriostasis concentration in the test with staphylococcus aureus, with saccharomyces cerevisiae and in the test with coliform bacteria were 8 µg/mL, 4 µg/mL and 4 µg/mL, respectively. Moreover, the “control and sterilization” value in the test on heterotrophic bacteria was “controlled and sterilized effectively”.

Take `CC(C)OCCCn1sc(Cl)c(Cl)c1=O` [4,5-dichloro-2-isopropoxypropyl-4-isothiazolin-3-one]: the results for the lowest bacteriostasis concentration in the test with staphylococcus aureus, in the test with saccharomyces cerevisiae and in the test with coliform bacteria were 16 µg/mL, 8 µg/mL and 8 µg/mL, respectively. In addition, the “effect” value with leaf spot of beet is “considerable effect of the prevention and cure”. Also, the “efficiency of the prevention and cure” value with leaf spot of beet (39 g pure medicament per mu, 250 ppm) is recorded as “up to 75.0%”. Besides, the “control and sterilization” value in the test with heterotrophic bacteria was “controlled and sterilized effectively”.

Regarding `CCOCCCn1sc(Cl)c(Cl)c1=O` [4,5-dichloro-2-ethoxypropyl-4-isothiazolin-3-one], the lowest bacteriostasis concentration with staphylococcus aureus stood at 16 µg/mL; in the test on saccharomyces cerevisiae, 8 µg/mL; in the test on coliform bacteria, 4 µg/mL. Also, the “effect” value with leaf spot of beet is “considerable effect of the prevention and cure”. Also, in the test on heterotrophic bacteria, the “control and sterilization” value is “controlled and sterilized effectively”.

For `COC(COC(C)Cn1sc(Cl)c(Cl)c1=O)OC` (centres unmarked) [4,5-dichloro-2-dimethoxyethoxypropyl-4-isothiazolin-3-one], in the test on leaf spot of beet, the “effect” value is “considerable effect of the prevention and cure”.

In the case of `O=c1c(Cl)c(Cl)sn1CCCOCCOc1ccc(Cl)cc1` [4,5-dichloro-2-chlorophenoxyethoxypropyl-4-isothiazolin-3-one], the lowest bacteriostasis concentration was determined as 16 µg/mL in the test with staphylococcus aureus, 8 µg/mL in the test on saccharomyces cerevisiae and 8 µg/mL in the test on coliform bacteria.

Values taken from patent US7442240B2, “Alkoxylpropylisothiazolinone and preparation method and use thereof” (Ocean University of China, priority 2004, dated 2008).
